In PubChem BioAssay (NCI):
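Test compounds were applied to cells in 96-well plates for 48 hours at 5 doses. Here, GI50 denotes the concentration required for 50% inhibition of growth. The concentration for full growth arrest is given as TGI.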

Tests used:
Test in all cases: inhibition of tumour cell growth, NCI panel, 48 h
[1] = test system: PC-3 prostate
[2] = test system: ACHN renal
[3] = test system: IGROV1 ovarian
[4] = test system: NCI-H460 lung
[5] = test system: SF-268 CNS
[6] = test system: CCRF-CEM leukemia
[7] = test system: SW-620 colon
[8] = test system: MCF7 breast
[9] = test system: SF-295 CNS
[10] = test system: SK-MEL-28 melanoma

**Q.** CN(CCO)CCC1COc2ccccc2O1 (stereo unspecified) was tested. Which TGI [1] did it give?
**A.** Its TGI is over 10 µM.

**Q.** And the TGI [2]?
**A.** The TGI was over 10 µM.

**Q.** And the TGI [3]?
**A.** The TGI was over 10 µM.

**Q.** What about the TGI [4] of the same compound?
**A.** Its TGI is over 10 µM.

**Q.** And the TGI [5]?
**A.** Its TGI is over 10 µM.

**Q.** What about the TGI [6] of the same compound?
**A.** Its TGI is over 10 µM.

**Q.** What about the TGI [7] of the same compound?
**A.** Its TGI is over 10 µM.

**Q.** What about the TGI [8] of the same compound?
**A.** Its TGI is over 10 µM.

**Q.** What about the TGI [9] of the same compound?
**A.** The TGI was over 10 µM.

**Q.** What about the TGI [10] of the same compound?
**A.** Its TGI is over 10 µM.

**Q.** Which TGI [1] does the source give for Brc1ccc2nc(-c3cccs3)nc(N3CCN(c4ccccc4)CC3)c2c1 here?
**A.** The TGI was over 100 µM.

**Q.** And the TGI [2]?
**A.** Its TGI is over 100 µM.

**Q.** And the TGI [3]?
**A.** Its TGI is over 100 µM.

**Q.** And the TGI [4]?
**A.** The TGI was over 100 µM.

**Q.** What about the TGI [5] of the same compound?
**A.** Its TGI is over 100 µM.

**Q.** And the TGI [7]?
**A.** The TGI was over 100 µM.

**Q.** What about the TGI [8] of the same compound?
**A.** Its TGI is over 100 µM.

**Q.** What about the TGI [9] of the same compound?
**A.** Its TGI is over 100 µM.

**Q.** What about the TGI [10] of the same compound?
**A.** The TGI was over 100 µM.

**Q.** How did the TGI [1] turn out when CC(C)(C)c1ccc(NS(=O)(=O)c2ccc(N)cc2)cc1 was run?
**A.** Its TGI is 85.7 µM.

**Q.** And the TGI [2]?
**A.** The TGI was 83.6 µM.

**Q.** And the TGI [3]?
**A.** The TGI was 45.2 µM.

**Q.** And the TGI [4]?
**A.** The TGI was over 100 µM.

**Q.** What about the TGI [5] of the same compound?
**A.** The TGI was 78.2 µM.

**Q.** And the TGI [6]?
**A.** The TGI was 40.2 µM.

**Q.** What about the TGI [7] of the same compound?
**A.** The TGI was 69 µM.

**Q.** What about the TGI [8] of the same compound?
**A.** Its TGI is 39 µM.

**Q.** And the TGI [9]?
**A.** The TGI was 14 µM.

**Q.** What about the TGI [10] of the same compound?
**A.** Its TGI is 63.7 µM.

**Q.** What does the source list for COc1cc(-c2n/c(=C\c3c(O)[nH]c4ccccc34)cc3c2=Nc2ccccc2-3)ccc1F?
**A.** GI50 [1]: 10.2 µM; TGI [1]: 48.8 µM; GI50 [2]: 8.09 µM; TGI [2]: 35.2 µM; GI50 [3]: 10.3 µM; TGI [3]: 48.9 µM; GI50 [4]: 4.37 µM; TGI [4]: 58.2 µM; GI50 [5]: 10.6 µM; TGI [5]: 44.2 µM; GI50 [6]: 4.75 µM; TGI [6]: > 100 µM; GI50 [7]: 4.15 µM; TGI [7]: 86.7 µM; GI50 [8]: 2.51 µM; TGI [8]: > 100 µM; GI50 [9]: 24.4 µM; TGI [9]: > 100 µM; GI50 [10]: 6.2 µM; TGI [10]: 22.6 µM

**Q.** C/C=C(\C)C(=O)OC1C2C(C)=CC(=O)C(O)C2(C)C2C3(O)OCC24C1OC(=O)C(OC(C)=O)C4C(C)C3O (stereo unspecified) was tested. Which TGI [3] did it give?
**A.** Its TGI is 0.16 µM.

**Q.** What about the TGI [4] of the same compound?
**A.** Its TGI is 0.038 µM.

**Q.** What about the TGI [5] of the same compound?
**A.** The TGI was 0.0887 µM.

**Q.** And the TGI [6]?
**A.** Its TGI is 0.244 µM.

**Q.** What about the TGI [7] of the same compound?
**A.** The TGI was 0.525 µM.

**Q.** What about the TGI [9] of the same compound?
**A.** Its TGI is 0.0959 µM.

**Q.** And the TGI [10]?
**A.** Its TGI is 0.0397 µM.
